{"source": "patent EP0314302A2", "about": "“Herbicidal o-carbomethoxy-sulfonylureas” (E.I. DU PONT DE NEMOURS AND COMPANY, priority 1987, dated 1989)", "key": {"[1]": {"system": "Avena fatua", "experiment": "Test 1 greenhouse, postemergence", "type": "in vivo", "details": "21 days, scale 0-100", "protocol": "(§1) Seeds of Bromus tectorum, Kochia scoparia, Salsoa kali, Avena fatua, Convolvulus arvensis, Secale cereale, Setaria viridis and Triticum aestivum were placed in 26-cm plastic pans containing a pasteurized sandy loam soil (pH 6.5, 1% organic matter). Plantings were maintained in the greenhouse for 18-28 days at which time the postemergence treatments were applied using a nonphytotoxic solvent as the carrier for the herbicide. The preemergence segment of the test was seeded immediately before herbicide application using Bromus tectorum, Kochia scoparia, Polygonum convolvulus, Salsoa kali, Avena fatua, Convolvulus arvensis, Secale cereale, Setaria viridis, Aegilops cylindrica, Amaranthus retroflexus, Chenopodium album, Hordeum vulgare, Triticum aestivum, Sorghum bicolor, and Zea mays. All treatments were maintained in the greenhouse for an additional 21 days at which time visual assessment of weed control was determined using a scale of 0 to 100 for each species where 0 represented no control and 100 represented complete control."}, "[2]": {"system": "Bromus tectorum", "experiment": "Test 1 greenhouse, postemergence", "type": "in vivo", "details": "21 days, scale 0-100", "protocol": "as §1"}, "[3]": {"system": "Convolvulus arvensis", "experiment": "Test 1 greenhouse, postemergence", "type": "in vivo", "details": "21 days, scale 0-100", "protocol": "as §1"}, "[4]": {"system": "Kochia scoparia", "experiment": "Test 1 greenhouse, postemergence", "type": "in vivo", "details": "21 days, scale 0-100", "protocol": "as §1"}, "[5]": {"system": "Salsoa kali", "experiment": "Test 1 greenhouse, postemergence", "type": "in vivo", "details": "21 days, scale 0-100", "protocol": "as §1"}, "[6]": {"system": "Secale cereale", "experiment": "Test 1 greenhouse, postemergence", "type": "in vivo", "details": "21 days, scale 0-100", "protocol": "as §1"}, "[7]": {"system": "Setaria viridis", "experiment": "Test 1 greenhouse, postemergence", "type": "in vivo", "details": "21 days, scale 0-100", "protocol": "as §1"}, "[8]": {"system": "Triticum aestivum", "experiment": "Test 1 greenhouse, postemergence", "type": "in vivo", "details": "21 days, scale 0-100", "protocol": "as §1"}, "[9]": {"system": "Sugarcane", "experiment": "Test 5 sugarcane injury and weed control, postemergence", "type": "in vivo, Saccharum spp.", "details": "scale 0-100", "protocol": "(§2) Sugarcane (Saccharum spp.) cuttings which had been pre-sprouted were planted in 15-cm plastic pots. Narrowleaf panicum (Panicum maximum), large crabgrass (Digitaria sanguinalis), guineagrass (P. maximum) and itchgrass (Rottboellia exaltata) were seeded in individual 15-cm plastic pots.\n(§3) The pots were treated postemergence when the plants had 3 to 4 leaves with 2 to 3 tillers with Compound I formulated in a non-phytotoxic carrier made up of acetone-humectant-water-surfactant (22:1:1:0.05 v/v). The degree of crop injury and weed control was visually rated 27 days after treatment (DAT). Plant injury ratings are based on the scale of 0 to 100 where 0 = no effect, 20 = minimal injury and 100 = complete control."}, "[10]": {"system": "Narrowleaf panicum", "experiment": "Test 5 sugarcane injury and weed control, postemergence", "type": "in vivo, Panicum maximum", "details": "scale 0-100", "protocol": "as §2, §3"}, "[11]": {"system": "weed", "experiment": "Test 6 effect of surfactants, postemergence", "type": "in vivo", "details": "addition of a surfactant", "text": "The object of this test was to evaluate the effect of surfactants and plant growth stage on the efficacy of the compound of this invention. Plastic windowsill pots were filled with planting medium and seeded with yellow nutsedge (Cyperus esculentus), large crabgrass (Digitaria sanguinalis), goosegrass (Elsusine indica), bermudagrass (Cynodon dactylon), broadleaf signalgrass (Brachiara platyphalla), smooth crabgrass (Digitaria ischaemum), guinea grass (Panicum maximum) and johnsongrass (Sorghum halapense). Coffee (Coffea spp) plants with 2 to 4 branches were included in one test.\nPlants were treated postemergence with Compound I formulated with different surfactants or a non-phytotoxic carrier made up of acetone-humectant-water-surfactant."}, "[12]": {"system": "Wild mustard", "experiment": "Test 7 postemergence", "type": "in vivo", "details": "scale 0-100"}, "[13]": {"system": "Elephantgrass", "experiment": "Test 9 postemergence", "type": "in vivo, Pennisetum purpureum", "details": "scale 0-100", "protocol": "(§4) Plastic windowsill pots containing planting medium were seeded with bahiagrass, bindweed (Convolvulus spp), guinea grass (Panicum maximum), large crabgrass (Digitaria sanguinalis) and pigweed (Amaranthus spp). Individual 15-cm plastic pots contained sandbur (Cenchrus echinatus), Mikania cordata, Boston fern (Nephrolepis exalata), quackgrass (Agropyron repens), elephantgrass (Pennisetum purpureum) and sowthistle (Sonchus spp) plants.\n(§5) Plants were treated postemergence with Compound I formulated in a non-phytotoxic solvent. Plants were visually rated 22 days after treatment (DAT). Injury and weed control ratings were based on the scale of 0 to 100 where 0 = no effect, 20 = minimal control and 100 = complete control."}, "[14]": {"system": "Large Crabgrass", "experiment": "Test 9 postemergence", "type": "in vivo, Digitaria sanguinalis", "details": "16 g/ha, scale 0-100", "protocol": "as §4, §5"}, "[15]": {"system": "Green foxtail", "experiment": "Test 10 postemergence safety to crops and weed control", "type": "in vivo, Setaria viridis", "details": "16 g/ha, scale 0-100", "protocol": "(§6) The object of these tests was to evaluate the compound of this invention for postemergence safety to crops and weed control. Seedling and budded Macedine grapes were grown in 11.4-cm pots. Flax, green foxtail (Setaria viridis), \"Morex\" barley, wild oats (Avena fatua), \"Era\" wheat, annual ryegrass (Lolium multiflorum), wild radish (Raphanus raphanistrum), rape, sunflower, chickweed (Stellaria media) and wild buckwheat (Polygonum convolvulus) were seeded in windowsill pots.\n(§7) The plants were sprayed postemergence with Compound I in a non-phytotoxic solvent. Plants were visually rated 15 and 27 days after treatment (DAT). Injury and weed control ratings were based on the scale of 0 to 100 where 0 = no effect, 20 minimal control and 100 = complete control."}, "[16]": {"system": "Annual ryegrass", "experiment": "Test 10 postemergence safety to crops and weed control", "type": "in vivo, Lolium multiflorum", "details": "16 g/ha, scale 0-100", "protocol": "as §6, §7"}}, "data": [{"smiles": "COC(=O)c1cccnc1S(=O)(=O)NC(=O)Nc1nc(OC)cc(OC)n1", "note": "[Compound I, 2-[[(4,6-dimethoxypyrimidin-2-yl)aminocarbonyl]aminosulfonyl]-3-pyridinecarboxylic acid, methyl ester]", "values": [{"measurement": "visual assessment of weed control", "setting": "[1]; 4 g/ha", "result": 80}, {"measurement": "visual assessment of weed control", "setting": "[1]; 8 g/ha", "result": 80}, {"measurement": "visual assessment of weed control", "setting": "[1]; 16 g/ha", "result": 100}, {"measurement": "visual assessment of weed control", "setting": "[1]; 32 g/ha", "result": 100}, {"measurement": "visual assessment of weed control", "setting": "[1]; 64 g/ha", "result": 100}, {"measurement": "visual assessment of weed control", "setting": "[1]; 125 g/ha", "result": 100}, {"measurement": "visual assessment of weed control", "setting": "[2]; 4 g/ha", "result": 100}, {"measurement": "visual assessment of weed control", "setting": "[2]; 8 g/ha", "result": 100}, {"measurement": "visual assessment of weed control", "setting": "[2]; 16 g/ha", "result": 100}, {"measurement": "visual assessment of weed control", "setting": "[2]; 32 g/ha", "result": 100}, {"measurement": "visual assessment of weed control", "setting": "[2]; 64 g/ha", "result": 100}, {"measurement": "visual assessment of weed control", "setting": "[2]; 125 g/ha", "result": 100}, {"measurement": "visual assessment of weed control", "setting": "[3]; 4 g/ha", "result": 90}, {"measurement": "visual assessment of weed control", "setting": "[3]; 8 g/ha", "result": 100}, {"measurement": "visual assessment of weed control", "setting": "[3]; 16 g/ha", "result": 100}, {"measurement": "visual assessment of weed control", "setting": "[3]; 32 g/ha", "result": 100}, {"measurement": "visual assessment of weed control", "setting": "[3]; 64 g/ha", "result": 100}, {"measurement": "visual assessment of weed control", "setting": "[3]; 125 g/ha", "result": 100}, {"measurement": "visual assessment of weed control", "setting": "[4]; 4 g/ha", "result": 100}, {"measurement": "visual assessment of weed control", "setting": "[4]; 8 g/ha", "result": 100}, {"measurement": "visual assessment of weed control", "setting": "[4]; 16 g/ha", "result": 100}, {"measurement": "visual assessment of weed control", "setting": "[4]; 32 g/ha", "result": 100}, {"measurement": "visual assessment of weed control", "setting": "[4]; 64 g/ha", "result": 100}, {"measurement": "visual assessment of weed control", "setting": "[4]; 125 g/ha", "result": 100}, {"measurement": "visual assessment of weed control", "setting": "[5]; 4 g/ha", "result": 100}, {"measurement": "visual assessment of weed control", "setting": "[5]; 8 g/ha", "result": 100}, {"measurement": "visual assessment of weed control", "setting": "[5]; 16 g/ha", "result": 100}, {"measurement": "visual assessment of weed control", "setting": "[5]; 32 g/ha", "result": 100}, {"measurement": "visual assessment of weed control", "setting": "[5]; 64 g/ha", "result": 100}, {"measurement": "visual assessment of weed control", "setting": "[5]; 125 g/ha", "result": 100}, {"measurement": "visual assessment of weed control", "setting": "[6]; 4 g/ha", "result": 70}, {"measurement": "visual assessment of weed control", "setting": "[6]; 8 g/ha", "result": 100}, {"measurement": "visual assessment of weed control", "setting": "[6]; 16 g/ha", "result": 100}, {"measurement": "visual assessment of weed control", "setting": "[6]; 32 g/ha", "result": 100}, {"measurement": "visual assessment of weed control", "setting": "[6]; 64 g/ha", "result": 100}, {"measurement": "visual assessment of weed control", "setting": "[6]; 125 g/ha", "result": 100}, {"measurement": "visual assessment of weed control", "setting": "[7]; 4 g/ha", "result": 90}, {"measurement": "visual assessment of weed control", "setting": "[7]; 8 g/ha", "result": 90}, {"measurement": "visual assessment of weed control", "setting": "[7]; 16 g/ha", "result": 100}, {"measurement": "visual assessment of weed control", "setting": "[7]; 32 g/ha", "result": 100}, {"measurement": "visual assessment of weed control", "setting": "[7]; 64 g/ha", "result": 100}, {"measurement": "visual assessment of weed control", "setting": "[7]; 125 g/ha", "result": 100}, {"measurement": "visual assessment of weed control", "setting": "[8]; 4 g/ha", "result": 90}, {"measurement": "visual assessment of weed control", "setting": "[8]; 8 g/ha", "result": 100}, {"measurement": "visual assessment of weed control", "setting": "[8]; 16 g/ha", "result": 100}, {"measurement": "visual assessment of weed control", "setting": "[8]; 32 g/ha", "result": 100}, {"measurement": "visual assessment of weed control", "setting": "[8]; 64 g/ha", "result": 100}, {"measurement": "visual assessment of weed control", "setting": "[8]; 125 g/ha", "result": 100}, {"measurement": "Plant Injury Rating 27 DAT", "setting": "[9]; 8 g/ha", "result": 10}, {"measurement": "Plant Injury Rating 27 DAT", "setting": "[9]; 16 g/ha", "result": 20}, {"measurement": "Plant Injury Rating 27 DAT", "setting": "[9]; 32 g/ha", "result": 20}, {"measurement": "Plant Injury Rating 27 DAT", "setting": "[9]; 64 g/ha", "result": 30}, {"measurement": "Plant Injury Rating 27 DAT", "setting": "[10]; 8 g/ha", "result": 70}, {"measurement": "Plant Injury Rating 27 DAT", "setting": "[10]; 16 g/ha", "result": 100}, {"measurement": "Plant Injury Rating 27 DAT", "setting": "[10]; 32 g/ha", "result": 100}, {"measurement": "Plant Injury Rating 27 DAT", "setting": "[10]; 64 g/ha", "result": 100}, {"measurement": "weed control", "setting": "[11]", "result": "could improve the weed control"}, {"measurement": "Plant Injury Rating 18 DAT", "setting": "[12]; 16 g/ha", "result": 100}, {"measurement": "Plant Injury Rating 18 DAT", "setting": "[12]; 32 g/ha", "result": 100}, {"measurement": "Plant Injury Rating 22 DAT", "setting": "[13]; 8 g/ha", "result": 0}, {"measurement": "Plant Injury Rating 22 DAT", "setting": "[13]; 16 g/ha", "result": 50}, {"measurement": "Plant Injury Rating 22 DAT", "setting": "[13]; 32 g/ha", "result": 70}, {"measurement": "Plant Injury Rating 22 DAT", "setting": "[14]", "result": 60}, {"measurement": "Plant Injury Rating 15 DAT", "setting": "[15]", "result": 100}, {"measurement": "Plant Injury Rating 15 DAT", "setting": "[16]", "result": 100}]}]}
